Measurements published in ChEMBL document CHEMBL5506046, “Discovery of LLC355 as an Autophagy-Tethering Compound for the Degradation of Discoidin Domain Receptor 1” (J Med Chem, 2024).
The source made the active and inactive calls. The rule behind the calls is not given here.

Key:
NCI-H23 [1] = experiment: Inhibition of cell migration in human NCI-H23 cells at 1 uM incubated for 24 hrs by transwell assay; assay type: functional, cell-based
NCI-H23 [2] = experiment: Inhibition of cell invasion in human NCI-H23 cells at 1 uM incubated for 24 hrs by transwell assay; assay type: functional, cell-based
NCI-H23 [3] = experiment: Inhibition of tumorigenicity in human NCI-H23 cells at 1 uM incubated for 10 days by colony formation assay; assay type: functional, cell-based; conditions: time 10.0 day
[4] = molecular target: T1, LC3/Epithelial discoidin domain-containing receptor 1 (Homo sapiens, UniProt Q08345+Q9BXW4+Q9GZQ8+Q9H492); experiment: Autophagosome tethering activity at DDR1 in human NCI-H23 cells assessed as protein degradation at 0.3 uM measured after 24 hrs by immunoblotting analysis relative to control; assay type: cell-based
[5] = molecular target: T1, LC3/Epithelial discoidin domain-containing receptor 1; experiment: Autophagosome tethering activity at DDR1 in human NCI-H23 cells assessed as induction of protein degradation incubated for 12 hrs by immunoblotting analysis; assay type: cell-based
[6] = molecular target: LC3/Discoidin domain-containing receptor 2 (Homo sapiens) (UniProt Q16832+Q9BXW4+Q9GZQ8+Q9H492); experiment: Autophagosome tethering activity at DDR2 in human NCI-H23 cells assessed as induction of protein degradation at 100 to 1000 nM incubated for 24 hrs by immunoblotting analysis; assay type: cell-based; conditions: dose 100-1000 nM
[7] = molecular target: T1, LC3/Epithelial discoidin domain-containing receptor 1; experiment: Autophagosome tethering activity at DDR1 in human NCI-H23 cells assessed as induction of protein degradation at 1 uM by immunoblotting analysis; assay type: cell-based; conditions: time 1-24 hrs, TDE = time-dependent effect
[8] = molecular target: T1, LC3/Epithelial discoidin domain-containing receptor 1; experiment: Autophagosome tethering activity at DDR1 in human PANC-1 cells assessed as induction of protein degradation at 100 to 1000 nM measured after 24 hrs by immunoblotting analysis; assay type: cell-based; conditions: dose 100-1000 nM
[9] = molecular target: T1, LC3/Epithelial discoidin domain-containing receptor 1; experiment: Autophagosome tethering activity at DDR1 in human MIA PaCa-2 cells assessed as induction of protein degradation at 100 to 1000 nM measured after 24 hrs by immunoblotting analysis; assay type: cell-based; conditions: dose 100-1000 nM
NCI-H23 [10] = experiment: Effect on DDR1 mRNA level in human NCI-H23 cells at 0.3 to 1 uM incubated for 24 hrs by qRT-PCR analysis; assay type: functional, cell-based; conditions: dose 0.3-1 µM
[11] = Half life in Sprague-Dawley rat at 2 mg/kg, iv measured up to 24 hrs by LC-MS/MS analysis; assay type: ADME, organism-based; conditions: in vivo
[12] = Tmax in Sprague-Dawley rat at 2 mg/kg, iv measured up to 24 hrs by LC-MS/MS analysis; assay type: ADME, organism-based; conditions: in vivo
[13] = Cmax in Sprague-Dawley rat at 2 mg/kg, iv measured up to 24 hrs by LC-MS/MS analysis; assay type: ADME, organism-based; conditions: in vivo
[14] = AUC(0 to t) in Sprague-Dawley rat at 2 mg/kg, iv measured up to 24 hrs by LC-MS/MS analysis; assay type: ADME, organism-based; conditions: in vivo
[15] = Clearance in Sprague-Dawley rat at 2 mg/kg, iv measured up to 24 hrs by LC-MS/MS analysis; assay type: ADME, organism-based; conditions: in vivo
[16] = Half life in Sprague-Dawley rat at 10 mg/kg, po measured up to 24 hrs by LC-MS/MS analysis; assay type: ADME, organism-based; conditions: in vivo
[17] = Tmax in Sprague-Dawley rat at 10 mg/kg, po measured up to 24 hrs by LC-MS/MS analysis; assay type: ADME, organism-based; conditions: in vivo
[18] = Cmax in Sprague-Dawley rat at 10 mg/kg, po measured up to 24 hrs by LC-MS/MS analysis; assay type: ADME, organism-based; conditions: in vivo
[19] = AUC(0 to t) in Sprague-Dawley rat at 10 mg/kg, po measured up to 24 hrs by LC-MS/MS analysis; assay type: ADME, organism-based; conditions: in vivo
[20] = Oral bioavailability in Sprague-Dawley rat at 10 mg/kg measured up to 24 hrs by LC-MS/MS analysis; assay type: ADME, organism-based; conditions: in vivo
[21] = molecular target: T1, LC3/Epithelial discoidin domain-containing receptor 1; experiment: Autophagosome tethering activity at DDR1 in human NCI-H23 cells assessed as induction of protein degradation at 1 uM measured for 1 to 24 hrs in presence of cycloheximide by immunoblotting analysis; assay type: cell-based; conditions: time 1-24 hrs
[22] = molecular target: T1, LC3/Epithelial discoidin domain-containing receptor 1; experiment: Autophagosome tethering activity at DDR1 in human NCI-H23 cells assessed as induction of protein degradation at 1 uM pretreated for 24 hrs followed by medium replacement with compound-free medium measured for 12 hrs by Western blot analysis; assay type: cell-based
[23] = molecular target: T1, LC3/Epithelial discoidin domain-containing receptor 1; experiment: Autophagosome tethering activity at DDR1 in human NCI-H23 cells assessed as induction of protein degradation at 1 uM measured for >48 hrs by Western blot analysis; assay type: cell-based
[24] = molecular target: T1, LC3/Epithelial discoidin domain-containing receptor 1; experiment: Autophagosome tethering activity at DDR1 in bafilomycin A1-treated human NCI-H23 cells assessed as induction of protein degradation at 1 uM incubated for 12 hrs by Western blot analysis; assay type: cell-based
[25] = molecular target: T1, LC3/Epithelial discoidin domain-containing receptor 1; experiment: Autophagosome tethering activity at DDR1 in chloroquine-treated human NCI-H23 cells assessed as induction of protein degradation at 1 uM incubated for 12 hrs by Western blot analysis; assay type: cell-based
[26] = molecular target: T1, LC3/Epithelial discoidin domain-containing receptor 1; experiment: Autophagosome tethering activity at DDR1 in rapamycin-treated human NCI-H23 cells assessed as induction of protein degradation at 0.3 uM incubated for 12 hrs by Western blot analysis; assay type: cell-based
[27] = molecular target: T1, LC3/Epithelial discoidin domain-containing receptor 1; experiment: Autophagosome tethering activity at DDR1 in human NCI-H23 cells assessed as induction of protein degradation at 10 uM incubated for 6 hrs by Western blot analysis; assay type: cell-based
[28] = molecular target: T1, LC3/Epithelial discoidin domain-containing receptor 1; experiment: Autophagosome tethering activity at DDR1 in human NCI-H23 cells assessed as induction of protein degradation at 10 uM incubated for 6 hrs by TMT-based global proteomic profiling analysis; assay type: cell-based
NCI-H23 [29] = experiment: Downregulation of CDCA7 expression in human NCI-H23 cells at 10 uM incubated for 6 hrs by Western blot analysis; assay type: functional, cell-based
NCI-H23 [30] = experiment: Downregulation of LIPA expression in human NCI-H23 cells at 10 uM incubated for 6 hrs by Western blot analysis; assay type: functional, cell-based
NCI-H23 [31] = experiment: Downregulation of PPIC expression in human NCI-H23 cells at 10 uM incubated for 6 hrs by Western blot analysis; assay type: functional, cell-based
NCI-H23 [32] = experiment: Downregulation of REEP3 expression in human NCI-H23 cells at 10 uM incubated for 6 hrs by Western blot analysis; assay type: functional, cell-based
NCI-H23 [33] = experiment: Downregulation of RBM3 expression in human NCI-H23 cells at 10 uM incubated for 6 hrs by Western blot analysis; assay type: functional, cell-based
NCI-H23 [34] = experiment: Downregulation of BNIP3 expression in human NCI-H23 cells at 10 uM incubated for 6 hrs by Western blot analysis; assay type: functional, cell-based
NCI-H23 [35] = experiment: Downregulation of GOLM1 expression in human NCI-H23 cells at 10 uM incubated for 6 hrs by Western blot analysis; assay type: functional, cell-based
NCI-H23 [36] = experiment: Downregulation of CDK4 expression in human NCI-H23 cells at 10 uM incubated for 6 hrs by Western blot analysis; assay type: functional, cell-based
NCI-H23 [37] = experiment: Downregulation of EXO1 expression in human NCI-H23 cells at 10 uM incubated for 6 hrs by Western blot analysis; assay type: functional, cell-based
NCI-H23 [38] = experiment: Inhibition of cell migration in human NCI-H23 cells at 0.3 uM incubated for 24 hrs by transwell assay; assay type: functional, cell-based
NCI-H23 [39] = experiment: Inhibition of cell invasion in human NCI-H23 cells at 0.3 uM incubated for 24 hrs by transwell assay; assay type: functional, cell-based
NCI-H23 [40] = experiment: Induction of apoptosis in human NCI-H23 cells assessed as increase in cleaved PARP level at 0.3 uM incubated for 24 hrs by Western blot analysis; assay type: functional, cell-based
NCI-H23 [41] = experiment: Induction of apoptosis in human NCI-H23 cells assessed as increase in cleaved PARP level at 1 uM incubated for 24 hrs by Western blot analysis; assay type: functional, cell-based
NCI-H23 [42] = experiment: Inhibition of tumorigenicity in human NCI-H23 cells at 0.1 to 1 uM incubated for 10 days by colony formation assay; assay type: functional, cell-based; conditions: dose 0.1-1 µM, time 10.0 day
[43] = Toxicity in Sprague-Dawley rat at 10 mg/kg, po or 2 mg/kg, iv measured up to 24 hrs by LC-MS/MS analysis; assay type: organism-based; conditions: in vivo
[44] = Toxicity in Sprague-Dawley rat assessed as drug tolerance at 10 mg/kg, po or 2 mg/kg, iv measured up to 24 hrs by LC-MS/MS analysis; assay type: organism-based; conditions: in vivo

SMILES: CC#Cc1cc(C(=O)Nc2cc(CN3CCN(CCOCC(=O)NCCCN(C(=O)c4ccc(C)cc4)[C@@H](c4nc5cc(Cl)ccc5c(=O)n4Cc4ccccc4)C(C)C)CC3)cc(C(F)(F)F)c2)ccc1CC
- inhibition (NCI-H23 [1]): inactive
- inhibition (NCI-H23 [2]): inactive
- inhibition (NCI-H23 [3]): inactive

SMILES: CCc1ccc(C(=O)Nc2cc(CN3CCN(CCOCCOCCOCC(=O)NCCCN(C(=O)c4ccc(C)cc4)[C@@H](c4nc5cc(Cl)ccc5c(=O)n4Cc4ccccc4)C(C)C)CC3)cc(C(F)(F)F)c2)cc1C#Cc1cnc2ccnn2c1
- Activity [4]: 0%

SMILES: CCc1ccc(C(=O)Nc2cc(CN3CCN(CCCCCCCCCC(=O)NCCCN(C(=O)c4ccc(C)cc4)[C@@H](c4nc5cc(Cl)ccc5c(=O)n4Cc4ccccc4)C(C)C)CC3)cc(C(F)(F)F)c2)cc1C#Cc1cnc2ccnn2c1
- Activity [4]: 0%

SMILES: CCc1ccc(C(=O)Nc2cc(CN3CCN(C(=O)CNC(=O)COc4c(Br)cc(/C=C5\C(=O)Nc6ccc(I)cc65)cc4Br)CC3)cc(C(F)(F)F)c2)cc1C#Cc1cnc2ccnn2c1
- Activity [4]: 16%

SMILES: CCc1ccc(C(=O)Nc2cc(CN3CCN(CCCCCC(=O)NCCCN(C(=O)c4ccc(C)cc4)[C@@H](c4nc5cc(Cl)ccc5c(=O)n4Cc4ccccc4)C(C)C)CC3)cc(C(F)(F)F)c2)cc1C#Cc1cnc2ccnn2c1
- Activity [4]: 13%

SMILES: CCc1ccc(C(=O)Nc2cc(CN3CCN(C(=O)COCCOCCNC(=O)COc4c(Br)cc(/C=C5\C(=O)Nc6ccc(I)cc65)cc4Br)CC3)cc(C(F)(F)F)c2)cc1C#Cc1cnc2ccnn2c1
- Activity [4]: 9%

SMILES: CCc1ccc(C(=O)Nc2cc(CN3CCN(C(=O)COc4c(Br)cc(/C=C5\C(=O)Nc6ccc(I)cc65)cc4Br)CC3)cc(C(F)(F)F)c2)cc1C#Cc1cnc2ccnn2c1
- Activity [4]: 4%

SMILES: CCc1ccc(C(=O)Nc2cc(CN3CCN(CCOCC(=O)NCCCN(C(=O)c4ccc(C)cc4)[C@@H](c4nc5cc(Cl)ccc5c(=O)n4Cc4ccccc4)C(C)C)CC3)cc(C(F)(F)F)c2)cc1C#Cc1cnc2ccnn2c1
- Activity [4]: 40%
- DC50 [5]: 151 nM
- Activity ([5]; dose 1-10000 nM): Dose-Dependent Effect
- Activity [6]: inactive
- Activity [7]: Tde
- Activity [8]: Active
- Activity [9]: Active
- Activity (NCI-H23 [10]): inactive
- half-life [11]: 191 min
- Tmax [12]: 4.8 min
- Cmax [13]: 27000 ng/mL
- AUC(0-t) at 24 h [14]: 30100 ng·h/mL
- clearance [15]: 1.11 mL/min/kg
- half-life [16]: 239 min
- Tmax [17]: 3.33 h
- Cmax [18]: 226 ng/mL
- AUC(0-t) at 24 h [19]: 1150 ng·h/mL
- bioavailability [20]: 0.77%
- Activity [21]: inactive
- Activity [22]: Active
- Activity [23]: Active
- Activity [24]: inactive
- Activity [25]: inactive
- Activity [26]: Active
- Activity [27]: Active
- Activity [28]: Active
- Activity (NCI-H23 [29]): Active
- Activity (NCI-H23 [30]): Active
- Activity (NCI-H23 [31]): Active
- Activity (NCI-H23 [32]): Active
- Activity (NCI-H23 [33]): Active
- Activity (NCI-H23 [34]): Active
- Activity (NCI-H23 [35]): Active
- Activity (NCI-H23 [36]): Active
- Activity (NCI-H23 [37]): Active
- inhibition (NCI-H23 [38]): Active
- inhibition (NCI-H23 [39]): Active
- Activity (NCI-H23 [40]): inactive
- Activity (NCI-H23 [41]): Active
- inhibition (NCI-H23 [42]): Active
- Activity [43]: Non-Toxic
- Activity [44]: Non-Toxic

SMILES: CCc1ccc(C(=O)Nc2cc(CN3CCN(C(=O)CCCNC(=O)COc4c(Br)cc(/C=C5\C(=O)Nc6ccc(I)cc65)cc4Br)CC3)cc(C(F)(F)F)c2)cc1C#Cc1cnc2ccnn2c1
- Activity [4]: 17%
